{"source": "paper PMC3352981", "about": "(Bioorganic & medicinal chemistry letters, 2012)", "origin": "cited, not measured here", "key": {"[1]": {"tested_on": "BoNT/A"}, "[2]": {"tested_on": "BoNT/A", "details": "mouse"}}}
{"smiles": "CC(C)(C)c1ccc(C=CC(=O)NO)cc1", "note": "[4-tert-butylcinnamyl hydroxamate]", "values": [{"measurement": "potency (in words)", "setting": "[1]", "value": "dramatic loss of potency"}]}
{"smiles": "O=C(/C=C/c1ccc(Cl)cc1Cl)NO", "note": "[Compound 1, 2,4-dichlorocinnamyl hydroxamic acid]", "values": [{"measurement": "in vivo activity", "setting": "[2]", "value": "marginal in vivo activity"}]}
